Assay type in all cases: cell-based
For test [1], the target named is T1, protein kinases (human kinome) (Homo sapiens, UniProt O43318).
T1 sequence (O43318 1-606): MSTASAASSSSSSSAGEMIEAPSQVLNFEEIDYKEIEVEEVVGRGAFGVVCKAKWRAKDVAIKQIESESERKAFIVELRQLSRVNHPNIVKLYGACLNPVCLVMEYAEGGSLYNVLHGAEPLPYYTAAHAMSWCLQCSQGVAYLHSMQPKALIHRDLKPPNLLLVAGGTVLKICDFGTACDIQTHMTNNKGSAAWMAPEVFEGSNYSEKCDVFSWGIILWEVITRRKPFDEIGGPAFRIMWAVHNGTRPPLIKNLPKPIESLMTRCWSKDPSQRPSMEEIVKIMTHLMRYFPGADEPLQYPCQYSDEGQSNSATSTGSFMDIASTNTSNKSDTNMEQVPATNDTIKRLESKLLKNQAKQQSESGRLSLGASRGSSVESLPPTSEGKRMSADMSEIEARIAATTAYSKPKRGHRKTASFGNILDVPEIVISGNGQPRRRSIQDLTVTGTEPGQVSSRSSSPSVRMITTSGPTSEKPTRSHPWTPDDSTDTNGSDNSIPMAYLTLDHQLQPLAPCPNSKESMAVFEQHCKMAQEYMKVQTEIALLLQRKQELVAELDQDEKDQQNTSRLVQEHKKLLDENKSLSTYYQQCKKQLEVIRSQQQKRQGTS
As to conditions: MAP3K7 (O43318).

Test [2] addresses protein kinases (human kinome) (Homo sapiens, UniProt Q96DU7). As to conditions: protein ITPKC (Q96DU7); experiment wp133, 4 hr; down.
For test [3], the target named is protein kinases (human kinome) (Homo sapiens, UniProt Q86UX6).
Sequence of protein kinases (human kinome) (Homo sapiens, UniProt Q86UX6) (Q86UX6 whole entry): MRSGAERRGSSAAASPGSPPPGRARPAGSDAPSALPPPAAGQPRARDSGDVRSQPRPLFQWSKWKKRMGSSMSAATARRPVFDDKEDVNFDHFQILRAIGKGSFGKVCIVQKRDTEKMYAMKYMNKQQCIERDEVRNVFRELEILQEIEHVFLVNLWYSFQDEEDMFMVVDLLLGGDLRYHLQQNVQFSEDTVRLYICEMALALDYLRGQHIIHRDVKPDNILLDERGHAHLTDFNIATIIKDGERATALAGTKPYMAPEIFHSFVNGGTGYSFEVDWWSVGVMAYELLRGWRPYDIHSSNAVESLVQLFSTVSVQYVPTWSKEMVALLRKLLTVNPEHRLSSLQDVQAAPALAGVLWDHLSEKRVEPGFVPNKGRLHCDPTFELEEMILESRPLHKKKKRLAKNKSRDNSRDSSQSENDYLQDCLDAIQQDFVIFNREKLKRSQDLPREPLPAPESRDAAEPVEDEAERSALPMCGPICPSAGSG
For test [4], the target named is T2, protein kinases (human kinome) (Homo sapiens, UniProt P29323).
T2 sequence (P29323 19-1055): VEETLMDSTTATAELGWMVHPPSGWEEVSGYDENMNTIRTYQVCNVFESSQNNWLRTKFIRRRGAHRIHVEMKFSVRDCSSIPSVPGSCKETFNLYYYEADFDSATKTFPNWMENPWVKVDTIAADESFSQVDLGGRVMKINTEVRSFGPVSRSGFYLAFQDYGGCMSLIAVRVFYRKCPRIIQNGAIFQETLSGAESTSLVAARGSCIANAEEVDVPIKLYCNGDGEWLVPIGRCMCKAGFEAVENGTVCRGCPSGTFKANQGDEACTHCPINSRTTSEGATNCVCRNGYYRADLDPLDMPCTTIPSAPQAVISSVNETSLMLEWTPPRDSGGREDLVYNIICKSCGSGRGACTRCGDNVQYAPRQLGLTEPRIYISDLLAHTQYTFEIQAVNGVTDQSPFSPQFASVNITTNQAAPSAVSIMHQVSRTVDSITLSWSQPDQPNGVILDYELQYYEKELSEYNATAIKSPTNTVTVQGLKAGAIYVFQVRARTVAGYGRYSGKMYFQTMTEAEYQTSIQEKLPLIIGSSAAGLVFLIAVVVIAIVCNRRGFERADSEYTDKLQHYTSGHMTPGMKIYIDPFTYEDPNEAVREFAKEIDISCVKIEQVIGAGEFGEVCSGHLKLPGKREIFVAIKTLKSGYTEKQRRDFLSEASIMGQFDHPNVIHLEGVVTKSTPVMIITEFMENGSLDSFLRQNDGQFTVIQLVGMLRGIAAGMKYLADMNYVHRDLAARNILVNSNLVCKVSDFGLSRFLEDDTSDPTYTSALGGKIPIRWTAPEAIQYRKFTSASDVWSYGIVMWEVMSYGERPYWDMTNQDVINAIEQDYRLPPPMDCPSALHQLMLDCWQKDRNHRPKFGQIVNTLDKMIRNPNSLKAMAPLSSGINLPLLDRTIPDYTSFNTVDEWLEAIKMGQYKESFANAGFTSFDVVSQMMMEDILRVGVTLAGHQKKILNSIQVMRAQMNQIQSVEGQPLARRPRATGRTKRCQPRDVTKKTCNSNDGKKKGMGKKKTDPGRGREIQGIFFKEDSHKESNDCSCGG

Read-outs that look alike come from different tables or passages of the source.

Sequence of protein kinases (human kinome) (Homo sapiens, UniProt Q96DU7) (Q96DU7 whole entry): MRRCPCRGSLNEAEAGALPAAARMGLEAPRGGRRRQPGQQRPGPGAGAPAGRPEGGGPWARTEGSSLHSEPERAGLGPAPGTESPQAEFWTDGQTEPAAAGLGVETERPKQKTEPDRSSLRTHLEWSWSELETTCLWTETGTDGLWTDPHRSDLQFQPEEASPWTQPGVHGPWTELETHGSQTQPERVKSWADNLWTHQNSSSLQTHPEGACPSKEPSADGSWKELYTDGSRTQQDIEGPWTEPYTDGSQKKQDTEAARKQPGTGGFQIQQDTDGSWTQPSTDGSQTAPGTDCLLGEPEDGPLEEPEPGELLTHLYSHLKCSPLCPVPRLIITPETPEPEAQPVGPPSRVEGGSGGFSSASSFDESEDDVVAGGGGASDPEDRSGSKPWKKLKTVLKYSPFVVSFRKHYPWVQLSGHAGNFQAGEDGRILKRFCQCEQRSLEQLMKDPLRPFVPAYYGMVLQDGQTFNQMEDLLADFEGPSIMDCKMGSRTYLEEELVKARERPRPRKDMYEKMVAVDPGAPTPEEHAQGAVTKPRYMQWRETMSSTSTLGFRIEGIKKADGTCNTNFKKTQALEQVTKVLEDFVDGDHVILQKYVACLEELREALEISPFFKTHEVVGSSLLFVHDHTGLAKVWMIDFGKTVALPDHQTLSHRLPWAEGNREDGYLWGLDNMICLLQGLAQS

Consider `Cc1ccc(C(=O)Nc2ccc(CN3CCN(CCCOCCOCCOCCNC(=O)COc4cccc5c4C(=O)N(C4CCC(=O)NC4=O)C5=O)CC3)c(C(F)(F)F)c2)cc1C#Cc1cnc2cccnn12` (stereo not drawn) [SB1.G.187], for which the logFC in test [1] (experiment wp056) is on record as −1.003; in test [1] (experiment wp056, direction down) it was −1.003; in test [1] (experiment wp103) it was −1.374; in test [1] (experiment wp103, direction down), −1.374; in test [1] (experiment wp105), −1.031; in test [1] (experiment wp105, direction down) it was −1.031. In addition, the logFC is −1.33 in test [1] (experiment wp107); −1.33 in test [1] (experiment wp107, direction down); −0.5772 in test [1] (experiment wp172); −0.5772 in test [1] (experiment wp172, direction down).
As for `CC(C)S(=O)(=O)c1ccccc1Nc1nc(Nc2ccc(N3CCN(CCOCCNC(=O)CNc4cccc5c4C(=O)N(C4CCC(=O)NC4=O)C5=O)CC3)cc2)ncc1Cl` (stereo not drawn) [SK.3.91], the “logFC ITPKC” value in test [2] is on record as −0.3556. Besides, the “logFC STK32C (Q86UX6)” value in test [3] (Experiment wp114, direction of change down) is listed as −0.6189. Also, the “logFC STK32C” value in test [3] (protein STK32C (Q86UX6), experiment wp114, down) is −0.6189. The logFC in test [4] (EPHB2 (P29323), experiment wp107) is reported as −0.6293. In addition, in test [4] (Experiment wp107), the “logFC of EPHB2 (P29323)” value is reported as −0.6293.
